In patent US10905764B2, “Hydrated food” (Taiyokagaku Co., Ltd., priority 2005, dated 2021):

Tests used:
mice = type: in vivo; conditions: oral administration of theanine by 5 g/kg
From the text: Theanine used in the invention has a high security. […] Furthermore, theanine is known as a principal component of deliciousness of tea and used as a food additive for use as gustatory. An amount of theanine to be added is not limited under the Food Sanitation Law.

[1] = Dissolution / water solubility; conditions: in the hydrated food

Compound: CCNC(=O)CC[C@H](N)C(=O)O [theanine, L-theanine]
- mortality in acute toxicity test (mice): no mice died
- upper limit of dissolution [1]: 250 mg/mL
